Results published in patent publication US20230172940A1, “METHODS OF EXTENDING LIFESPAN BY ADMINISTERING FERROPTOSIS INHIBITORS” (COLLABORATIVE MEDICINAL DEVELOPMENT, LLC, priority 2020, published 2023).
“And” between values parts separate entries of the source, which are not always exact repeats. Identical values can stand only once. Marks after values point to notes of the source that are not given here.

Assays:
Type in all cases: in vivo, Caenorhabditis elegans
[1] = tested on: Hydroxynonenal (4-HNE) protein adducts; assay: Lipid peroxidation: 4-HNE protein adducts (immunoblot); conditions: qualitative
Description: Analysis of Hydroxynonenal (4-HNE) protein adducts was also used as a proxy for lipid peroxidation. Duplicate samples of 50 and 200 worms were collected and washed twice in S-basal^o pelleted by centrifugation and the supernatant discarded. These samples (^˜30 μL) were frozen in liquid-N2 and stored at −80° C. until needed. To each sample an 10 μL 4× Bolt LDS sample buffer (Invitrogen) and 3 μL TCEP (Invitrogen) was added and the sample heated to 95° C. for 10 min. Lysates were loaded onto NuPAGE™ 4-12% Bis-Tris acrylamide gels (1.0 mm^o 10-well^o Invitrogen)^o electrophoresed with MES running buffer and then transferred onto 0.45 μm PVDF membrane by electroblot using a Mini Blot module (Invitrogen). 4-HNE protein adducts were detected by an anti 4-HNE protein adduct antibody (1:2000^o AB5605^o Millipore) in Tris-buffer saline with 5% skim milk^o and ECL (GE Healthcare). The membranes were stripped using a 1× ReBlot Strong Antibody Stripping Solution (Merck) for 15 min^o reprobed for tubulin using an anti-Tubulin antibody (1:10^o000^oT6074^o Sigma-Aldrich).

C. elegans = assay: Movement; conditions: for maximum velocity, 25% Percentile / maximum velocity, 75% Percentile / maximum velocity, Maximum / maximum velocity, Mean / maximum velocity, Median / maximum velocity, Minimum / mean velocity, 25% Percentile / mean velocity, 75% Percentile / mean velocity, Maximum / mean velocity, Mean / mean velocity, Median / mean velocity, Minimum / total distance traveled, 25% Percentile / total distance traveled, 75% Percentile / total distance traveled, Maximum / total distance traveled, Mean / total distance traveled, Median / total distance traveled, Minimum: 250 μM SIH or 200 μM Lip-1, 25° C; for total distance traveled, 25% Percentile / total distance traveled, 75% Percentile / total distance traveled, Maximum / total distance traveled, Mean / total distance traveled, Median / total distance traveled, Minimum: 30 second recording; for age-related decline in mean velocity: Kruskal-Wallis ANOVA H(7)=339.2, p<0.0001; for maximum velocity of aging animals: in vivo
Description: A developmentally synchronous population, derived from eggs laid over a 2-hour window, were cultured on NGA media at 25° C. for 48 h, and then as young adult worms were transferred onto three treatment plates for an additional 24 h. The treatment plates included NGM+0.5% (v/v) DMSO (vehicle control, Ctl), NGM+250 μM SIH, and NGM+200 μM Lip-1 (as described above).
Single worms were transferred to a 55 mm NGA assay plate devoid of a bacterial lawn, without a lid, and left to recover from the transfer for 2 minutes. Movement of the adults was then recorded using a stereomicroscope (Leica M80) with transmitted illumination from below. A 30 second video recording was captured using a 3 MP DFC290 HD digital camera (Leica Microsystems) at a rate of 30 frames per second. Pixel length was calibrated using a 25 μm grid slide (Microbrightfield, Inc). Recorded series were analysed using the wrMTrck plugin for ImageJ (www.phage.dk/plugins) and Fiji (a distribution of ImageJ).
The maximum velocity achieved was expressed as mm per second (as derived from the distance between displaced centroids per second). Additional metrics of movement were determined including mean velocity (mm s^−1) and (total) distance travelled (mm). These variables were collated in Prism (v7.0a GraphPad Software) and presented as a scatter plot with medians and interquartile range.

C. elegans strain TJ1060 = assay: Lifespan determination; conditions: for average increase in median lifespan: 8 independent replicates, 200 μM Lip-1 or 250 μM SIH; for effect on survival curve: in vivo
Description: Lifespan was measured using established protocols. SIH was dissolved in neat dimethyl sulfoxide (DMSO; Sigma-Aldrich) then added to the molten NGM at 55° C. (to a final concentration of 250 μM SIH in 0.5% v/v DMSO). Lip-1 was dissolved in neat DMSO then added to the molten NGM at 55° C. (to a final concentration of 200 μM Lip-1 in 0.5% v/v DMSO). Media containing equivalent vehicle alone (0.5% v/v DMSO) was used for comparison. Standard overnight culture of the Escherichia coli (E. coli) strain OP50 was used as the food source.
Lifespan data was collected at 25 (±1) ° C. using the temperature sensitive-sterile strain TJ1060 [spe-9(hc88); fer-15(b26)]. A synchronous population was obtained by transferring egg-laying adults to fresh plates at 16° C. for 2-3 hours. The adults were removed and the plates with eggs then transferred to 25° C. to ensure sterility. After 48 hours at 25° C., when worms were at the late L4/young adult stage, 25-35 nematodes were transferred to fresh plates containing either vehicle control, 250 μM SIH, or 200 μM Lip-1. All plates were coded to allowing blinding of the experimenter to the treatment regime during scoring. Nematodes were scored for survival at one to three-day intervals and transferred to freshly prepared plates as needed (2-5 days).
It is well documented that differences are observed between independent measures of lifespan, with micro-environmental factors such as minor temperature fluctuations potentially resulting differences in median and maximum lifespan between replicates. After determining the optimal doses of 250 μM SIH and 200 μM Lip-1, respectively, cohorts of nematodes were compared in 8 independent replicates. As the number of worms measured is known to influence the likelihood of accurately observing differences in lifespan, the starting populations for all treatments within experiments were in excess of 70 individuals.

[2] = 200 μM Lip-1, days of adulthood at 25 (±1)° C, single replicate experiments 1-8
[3] = 250 μM SIH, days of adulthood at 25 (±1)° C, single replicate experiments 1-8

## Clc1cccc(CNC2=Nc3ccccc3NC23CCNCC3)c1 [Lip-1, N-[(3-chlorophenyl)methyl]-spiro[piperidine-4,2′(1′H)-quinoxalin]-3′-amine]
[1]
  increase in 4-HNE protein adducts with age: suppressed
C. elegans; Day 4
  maximum velocity, 25% Percentile: 0.2711 mm per second
  maximum velocity, 75% Percentile: 0.4861 mm per second
  maximum velocity, Maximum: 0.7204 mm per second
  maximum velocity, Mean: 0.37 mm per second
  maximum velocity, Median: 0.3762 mm per second
  maximum velocity, Minimum: 0.06351 mm per second
  mean velocity, 25% Percentile: 0.05892 mm s-1
  mean velocity, 75% Percentile: 0.1839 mm s-1
  mean velocity, Maximum: 0.2606 mm s-1
  mean velocity, Mean: 0.1244 mm s-1
  mean velocity, Median: 0.1349 mm s-1
  mean velocity, Minimum: 0.01219 mm s-1
  total distance traveled, 25% Percentile: 1.797 mm
  total distance traveled, 75% Percentile: 5.397 mm
  total distance traveled, Maximum: 7.817 mm
  total distance traveled, Mean: 3.685 mm
  total distance traveled, Median: 4.126 mm
  total distance traveled, Minimum: 0.07633 mm
C. elegans; Day 8
  maximum velocity, 25% Percentile: 0.1478 mm per second
  maximum velocity, 75% Percentile: 0.2452 mm per second
  maximum velocity, Maximum: 0.5563 mm per second
  maximum velocity, Mean: 0.2084 mm per second
  maximum velocity, Median: 0.1922 mm per second
  maximum velocity, Minimum: 0.05622 mm per second
  mean velocity, 25% Percentile: 0.03386 mm s-1
  mean velocity, 75% Percentile: 0.06818 mm s-1
  mean velocity, Maximum: 0.1644 mm s-1
  mean velocity, Mean: 0.05407 mm s-1
  mean velocity, Median: 0.04763 mm s-1
  mean velocity, Minimum: 0.008319 mm s-1
  total distance traveled, 25% Percentile: 1.001 mm
  total distance traveled, 75% Percentile: 2.092 mm
  total distance traveled, Maximum: 4.926 mm
  total distance traveled, Mean: 1.627 mm
  total distance traveled, Median: 1.451 mm
  total distance traveled, Minimum: 0.2338 mm
C. elegans
  age-related decline in mean velocity: attenuates the age-related decline in mean velocity
  maximum velocity of aging animals: markedly improved
C. elegans strain TJ1060; 200 μM Lip-1
  % median Ý, Mean of 8 replicates: +72%
C. elegans strain TJ1060; 200 μM Lip-1, 25 (±1)° C
  max. lifespan, Mean of 8 replicates: 25 days
  median lifespan, Mean of 8 replicates: 13 days
C. elegans strain TJ1060; [2]
  max. lifespan: 25 days (2×) and 20 days and 24 days (2×) and 26 days (2×) and 27 days
  median lifespan: 13* days and 11† days and 14* days (4×) and 12* days and 15* days
C. elegans strain TJ1060; 200 μM Lip-1, single replicate experiments 1-8
  % median Ý (median lifespan vs control): 86% and 38% and 56% (2×) and 100% and 50% and 114% and 75%
C. elegans strain TJ1060
  average increase in median lifespan: ~70%
  effect on survival curve: primarily altered late life survival

## O=C(N/N=C/c1ccccc1O)c1ccncc1 [SIH, Salicylaldehyde isonicotinoyl hydrazone]
[1]
  increase in 4-HNE protein adducts with age: suppressed
C. elegans; Day 4
  maximum velocity, 25% Percentile: 0.3442 mm per second
  maximum velocity, 75% Percentile: 0.4755 mm per second
  maximum velocity, Maximum: 0.7127 mm per second
  maximum velocity, Mean: 0.392 mm per second
  maximum velocity, Median: 0.3733 mm per second
  maximum velocity, Minimum: 0.105 mm per second
  mean velocity, 25% Percentile: 0.1307 mm s-1
  mean velocity, 75% Percentile: 0.1824 mm s-1
  mean velocity, Maximum: 0.2629 mm s-1
  mean velocity, Mean: 0.1528 mm s-1
  mean velocity, Median: 0.1545 mm s-1
  mean velocity, Minimum: 0.02713 mm s-1
  total distance traveled, 25% Percentile: 3.977 mm
  total distance traveled, 75% Percentile: 5.513 mm
  total distance traveled, Maximum: 6.951 mm
  total distance traveled, Mean: 4.619 mm
  total distance traveled, Median: 4.766 mm
  total distance traveled, Minimum: 0.8402 mm
C. elegans; Day 8
  maximum velocity, 25% Percentile: 0.174 mm per second
  maximum velocity, 75% Percentile: 0.3506 mm per second
  maximum velocity, Maximum: 0.6458 mm per second
  maximum velocity, Mean: 0.2847 mm per second
  maximum velocity, Median: 0.2513 mm per second
  maximum velocity, Minimum: 0.1028 mm per second
  mean velocity, 25% Percentile: 0.04028 mm s-1
  mean velocity, 75% Percentile: 0.1029 mm s-1
  mean velocity, Maximum: 0.1739 mm s-1
  mean velocity, Mean: 0.07262 mm s-1
  mean velocity, Median: 0.05813 mm s-1
  mean velocity, Minimum: 0.02239 mm s-1
  total distance traveled, 25% Percentile: 1.224 mm
  total distance traveled, 75% Percentile: 3.193 mm
  total distance traveled, Maximum: 5.235 mm
  total distance traveled, Mean: 2.192 mm
  total distance traveled, Median: 1.784 mm
  total distance traveled, Minimum: 0.6912 mm
C. elegans
  age-related decline in mean velocity: attenuates the age-related decline in mean velocity
  maximum velocity of aging animals: markedly improved
C. elegans strain TJ1060; 250 μM SIH
  % median Ý, Mean of 8 replicates: +101%
C. elegans strain TJ1060; 250 μM SIH, 25 (±1)° C
  max lifespan, Mean of 8 replicates: 22 days
  median lifespan, Mean of 8 replicates: 16 days
C. elegans strain TJ1060; [3]
  max lifespan: 19 days (2×) and 23 days and 20 days and 18 days and 24 days and 29 days and 26 days
  median lifespan: 14* days (4×) and 16* days (2×) and 17* days and 20* days
C. elegans strain TJ1060; 250 μM SIH, single replicate experiments 1-8
  % median Ý (median lifespan vs control): 100% and 75% (2×) and 78% and 129% and 56% and 143% and 150%
C. elegans strain TJ1060
  average increase in median lifespan: ~100%
  effect on survival curve: extended mid-life with a squaring of the survival curve
